The source of these data is patent publication US20060084789A1, “Immunotherapeutic and immunoprphylactic reagents” (priority 2002, published 2006).

Common to all, as to type: cell-based, human
Assay [1] deals with IFN-γ production by RGP-specific TCL. Nature of the assay: IFN-γ detection in culture supernatants by sandwich ELISA. The settings on record: supernatant at 48 h, UD undetectable, limit of detection 2 pg/ml. The method, then:
(§1) Cytokine Detection in Culture Supernatants
(§2) Supernatants of triplicate cultures were harvested and pooled from T cell proliferation assay cultures at 48 hours for the detection of IL-5 and IFN-γ production by sandwich ELISA. Briefly white Maxisorp (NUNC, Roskilde, Denmark) ELISA plates were coated with capture mAb (anti-IL-5, Pharmingen, San Diego, Calif., USA; anti-IFN-γ, Endogen, Woburn, Mass. USA) overnight at 4° C. Plates were then washed and wells blocked with 1% Bovine Serum Albumin/PBS for 1 hour at room temperature. Following washing, test samples (neat) and serial dilutions of recombinant human IL-5 (Pharmingen, USA) or IFN-γ (Endogen, USA) (for the construction of standard curves) were added and incubated overnight at 4° C. Following washing, plates were incubated with biotinylated detecting mAb (anti-IL-5, Pharmingen, USA; […], Endogen, USA) for 1 hour at room temperature. Plates were then washed and incubated with streptavidin-peroxidase (Amersham, Piscataway, N.J., USA) for 30 minutes at room temperature. Following washing, a chemiluminescent substrate (Du Pont, Wilmington, Del., USA) was added to each well and plates read in a Lumicount microplate Glow Luminometer (Packard Instrument Company, Meriden, Conn., USA), 0.5 seconds/well, automatic sensitivity setting. Standard curve construction and determination of test sample cytokine levels were performed using Packard I-smart software. The limits of detection for IL-5 and IFN-γ were 10 pg/ml and 2 pg/ml respectively.
A general note: In an ELISA, binding on a coated surface is turned into a signal by an enzyme label.

The test system of another assay is RGP-specific TCL. Nature of the assay: TCL proliferation assay (3H-thymidine incorporation, stimulation index). The settings on record: for Proliferative response, stimulation index: peptides 10 μg/ml. The method, then:
Generation of Short-Term RGP-Specific TCL
PBMC were cultured in 24-well plates (Costar, Mass., USA) at 2.5×10^6 cells/well with RGP extract at a concentration of 25 or 50 μg/ml in RPMI 1640 medium (Gibco BRL, NY, USA) supplemented with 2 mM GlutaMAX I (Gibco BRL), 0.05 mg/ml gentamicin (David Bull Laboratories, Mulgrave, Victoria, Australia) and 5% heat-inactivated hunan AB^+ serum (Sigma, Mo., USA) for 7 days at 37° C. in a 5% CO2 humidified incubator. At day 7, cells were washed once and restimulated in 24-well plates at 5×10^5 cells/well width 25 or 50 μg/ml of RGP extract in the presence of 5×10^5 cells/well irradiated (3000 rads) autologous PBMC as a source of antigen presenting cells (APC). At day 2 following restimulation, 10 U/ml of Lymphocult T-LF (LC; Biotest, Germany) was added as a source of IL-2 and at day 4, 1 ml of culture medium was removed and replaced with fresh medium and 10 U/ml of LC. […] In all experiments T cells were rested for 6 to 7 days after the last addition of antigen and APC before testing.
T cells (5×10^4/well) were cultured in 96-well U bottom plates with either RGP extract at concentrations ranging from 25 to 200 μg/ml, purified Lol p 1 (0.12 to 2 μg/ml) or Lol p 5 (0.1 to 10 μg/ml), or Lol p 1 or Lol p 5 peptides (10 μg/ml), or medium alone (to determine background levels of proliferation), in the presence of washed autologous irradiated (3000 rads) PBMC (5×10^4/well). […] Cultures were incubated for 3 days, pulsed for the last 16 hours with ^3H-thymidine (1 μCi/well) and harvested onto glass fibre filters. ^3H-thymidine incorporation was measured by liquid scintillation spectroscopy and the mean counts per minute (cpm) for triplicate cultures was determined. Responses were considered positive if the stimulation index (SI, cpm of antigen-stimulated T cells divided by cpm of unstimulated T cells) was ≧2.5. Where several concentrations of allergen were tested (i.e., RGP, Lol p 1 and Lol p 5), values corresponding to the highest proliferation are shown.
A general note: Dividing cells build labelled thymidine or BrdU into new DNA.

In assay [2] the test system is IL-5 production by RGP-specific TCL. Nature of the assay: IL-5 detection in culture supernatants by sandwich ELISA. The settings on record: supernatant at 48 h, UD undetectable, limit of detection 10 pg/ml. The method, then: as §1, §2
[3] abbreviates: Subject 38 TCL, Lol p 5 peptides.
[4] abbreviates: Subject 15 TCL, Lol p 1 peptides.
The mark [5] stands for this setting: Subject 19 TCL, Lol p 1 peptides.
Where [6] appears, read: Subject 4 TCL, Lol p 1 series (Table 3), RGP and Lol p 1 maximal response.
Setting [7] is: Subject 11 TCL, Lol p 1 series (Table 3), RGP and Lol p 1 maximal response.
Setting [8] is: Subject 15 TCL, Lol p 1 series (Table 3), RGP and Lol p 1 maximal response.
Setting [9] is: Subject 19 TCL, Lol p 1 series (Table 3), RGP and Lol p 1 maximal response.
The mark [10] stands for this setting: Subject 3 TCL, Lol p 1 peptides.
Setting [11] is: Subject 2 TCL, Lol p 1 series (Table 3), RGP and Lol p 1 maximal response.
Where [12] appears, read: Subject 3 TCL, Lol p 1 series (Table 3), RGP and Lol p 1 maximal response.
Where [13] appears, read: Subject 17 TCL, Lol p 1 series (Table 3), RGP and Lol p 1 maximal response.

Regarding “ADKFKIFEAAFSESSKGLLA (Lolium perenne) [Lol p 5 peptide 55-74]”, the “IFN-γ, proliferation inducing peptides” value in assay [1] (setting [3]) is 54.2 pg/mL. For the same substance, the “Proliferative response, stimulation index” value is listed as 3.3 in the assay on RGP-specific TCL (Subject 36 TCL, Lol p 5 series (Table 4), RGP and Lol p 5 maximal response); 3.3 in the assay on RGP-specific TCL (Subject 38 TCL, Lol p 5 series (Table 4), RGP and Lol p 5 maximal response, * SDS-PAGE purified Lol p 5). Also, the “IL-5, proliferation inducing peptides” value in assay [2] (setting [3]) turned out to be 220.7 pg/mL.

Regarding “KPTGAGPKDNGGACGYKDVD (Lolium perenne) [Lol p 1 peptide 28-47]”, the “IFN-γ, proliferation inducing peptides” value worked out at 23.2 pg/mL in assay [1] (setting [4]) and 5.2 pg/mL in assay [1] (setting [5]). The “Proliferative response, stimulation index” value in the assay on RGP-specific TCL (setting [6]) is listed as 4.1; in the assay on RGP-specific TCL (setting [7]), 3.5; in the assay on RGP-specific TCL (setting [8]) it was 7.6; with RGP-specific TCL (setting [9]), 3.0.

For “LDAKSTWYGKPTGAGPKDNG (Lolium perenne) [Lol p 1 peptide 19-38]”, the “IFN-γ, proliferation inducing peptides” value in assay [1] (setting [10]) worked out at 20.9 pg/mL; in assay [1] (setting [4]) it was 204.1 pg/mL; in assay [1] (setting [5]), 2.8 pg/mL. Further, in the assay with RGP-specific TCL (Lol p 1 peptide-responsive RGP-specific TCL, SI ≥2.5 positive, listed as Lol p 1 (19-3 8)), the “responder frequency among Lol p 1 peptide-responsive donors” value worked out at 46%. Further, the “Proliferative response, stimulation index” value with RGP-specific TCL (setting [11]) was found to be 5.2; in the assay on RGP-specific TCL (setting [12]), 3.3; with RGP-specific TCL (setting [6]), 12.3; in the assay on RGP-specific TCL (Subject 6 TCL, Lol p 1 series (Table 3), RGP and Lol p 1 maximal response) it was 2.7; with RGP-specific TCL (Subject 7 TCL, Lol p 1 series (Table 3), RGP and Lol p 1 maximal response), 3.2; in the assay on RGP-specific TCL (Subject 8 TCL, Lol p 1 series (Table 3), RGP and Lol p 1 maximal response), 3.8. For the same substance, the “Proliferative response, stimulation index” value with RGP-specific TCL (Subject 12 TCL, Lol p 1 series (Table 3), RGP and Lol p 1 maximal response) came to 7.5; in the assay on RGP-specific TCL (setting [8]), 10.5; in the assay with RGP-specific TCL (setting [13]) it was 5.3; in the assay with RGP-specific TCL (setting [9]) it was 10.3; in the assay with RGP-specific TCL (Subject 21 TCL, Lol p 1 series (Table 3), RGP and Lol p 1 maximal response), 3.8. In addition, the “IL-5, proliferation inducing peptides” value in assay [2] (setting [4]) was 182.7 pg/mL.

Turning to “GHAFGSMAKKGEEQNVRSAG (Lolium perenne) [Lol p 1 peptide 109-128]”, the “IFN-γ, proliferation inducing peptides” value in assay [1] (setting [10]) is 32.1 pg/mL; in assay [1] (setting [4]), 143.3 pg/mL; in assay [1] (Subject 16 TCL, Lol p 1 peptides), 13.8 pg/mL; in assay [1] (setting [5]) it was 8.0 pg/mL. The “Proliferative response, stimulation index” value in the assay with RGP-specific TCL (setting [11]) is 12.9; in the assay on RGP-specific TCL (setting [12]), 2.8; with RGP-specific TCL (setting [8]) it was 7.1; in the assay with RGP-specific TCL (Subject 16 TCL, Lol p 1 series (Table 3), RGP and Lol p 1 maximal response) it was 3.0; in the assay on RGP-specific TCL (setting [13]), 2.7; with RGP-specific TCL (setting [9]), 12.0. Besides, the “IL-5, proliferation inducing peptides” value in assay [2] (setting [4]) is 160.7 pg/mL.

For the substance “Lol p 1 peptide 1-20: synthetic 20-mer, amino acids 1-20 of Lol p 1A (SEQ ID NO:1) (IAKVPPGPNITAEYGDKWLD; Lolium perenne)”, the “Proliferative response, stimulation index” value in the assay with RGP-specific TCL (Subject 24 TCL, Lol p 1 series (Table 3), RGP and Lol p 1 maximal response) is 2.6. In addition, the “IL-5, proliferation inducing peptides” value in assay [2] (Subject 74 TCL, Lol p 1 peptides) worked out at 46.1 pg/mL.

Turning to “IAPYHFDLSGHAFGSMAKKG (Lolium perenne) [Lol p 1 peptide 100-119]”, the “IFN-γ, proliferation inducing peptides” value in assay [1] (setting [4]) amounted to 167.1 pg/mL. The “Proliferative response, stimulation index” value was found to be 9.4 in the assay with RGP-specific TCL (setting [11]); 6.8 in the assay with RGP-specific TCL (setting [6]); 7.9 in the assay on RGP-specific TCL (setting [7]); 9.2 in the assay with RGP-specific TCL (setting [8]); 3.7 with RGP-specific TCL (setting [9]). In assay [2] (setting [4]), the “IL-5, proliferation inducing peptides” value came out at 275.6 pg/mL.

For “Lol p 1 peptide 136-155: synthetic 20-mer, amino acids 136-155 of Lol p 1A (SEQ ID NO:1) (RRVKCKYPDGTKPTFHVEKA; Lolium perenne)”, the “IFN-γ, proliferation inducing peptides” value in assay [1] (Subject 14 TCL, Lol p 1 peptides) came out at 106.4 pg/mL. Also, the “Proliferative response, stimulation index” value with RGP-specific TCL (setting [6]) is recorded as 2.5; in the assay with RGP-specific TCL (Subject 14 TCL, Lol p 1 series (Table 3), RGP and Lol p 1 maximal response) it was 4.4.

As for “AALTKAITAMTQAQKAGKPA (Lolium perenne) [Lol p 5 peptide 226-245]”, in assay [1] (Subject 2 TCL, Lol p 5 peptides), the “IFN-γ, proliferation inducing peptides” value stood at 292.0 pg/mL. For the same substance, the “Proliferative response, stimulation index” value with RGP-specific TCL (Subject 2 TCL, Lol p 5 series (Table 4), RGP and Lol p 5 maximal response) came out at 3.3; with RGP-specific TCL (Subject 11 TCL, Lol p 5 series (Table 4), RGP and Lol p 5 maximal response) it was 3.5; in the assay on RGP-specific TCL (Subject 13 TCL, Lol p 5 series (Table 4), RGP and Lol p 5 maximal response), 2.0; in the assay with RGP-specific TCL (Subject 27 TCL, Lol p 5 series (Table 4), RGP and Lol p 5 maximal response, † affinity purified Lol p 5), 7.1.

With “Lol p 1 peptide 163-182: synthetic 20-mer, amino acids 163-182 of Lol p 1A (SEQ ID NO:1) (ILVKYVDGDGDVVAVDIKEK; Lolium perenne)”, the “Lol p 1 peptides recognised by one or more TCL” value in the assay with RGP-specific TCL (34 TCL tested, all recognised with the exception of the four named) was “exception”. Further, the “Proliferative response, stimulation index” value in the assay with RGP-specific TCL (Subject 23 TCL, Lol p 1 series (Table 3), RGP and Lol p 1 maximal response) is on record as 4.2.
